{"source": "patent US9187458B2", "about": "“Cyanoquinoline derivatives” (Tianjin Hemay Bio-Tech Co., LTD., priority 2010, dated 2015)", "key": {"A431 cells": {"system": "A431 cells", "test": "A431 Cell Growth Inhibition Test (MTT Assay)", "type": "cell-based, human", "details": "for inhibition at 1 µM / IC50: Homo sapiens; for inhibition at 1 µM: A-431, 68 h, read-out: Growth Inhibition Ratio (%); for inhibition at 1 µM / Growth Inhibition Ratio (%): compound 1 μM, 68 h incubation; for IC50: A-431, 68 h incubation", "method_in_brief": "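Cells seeded at 2500/well in DMEM/F12 with 10% FBS, grown overnight, then exposed to compound for 68 h at 37 °C, 5% CO2. Viability by MTT (0.5 mg/ml, 4 h), DMSO-solubilised, OD 490 nm; IC50 is concentration giving 50% growth inhibition relative to controls.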"}, "AsPC-1 cells": {"system": "AsPC-1 cells", "test": "AsPC-1 Cell Growth Inhibition Test (MTT Assay)", "type": "cell-based", "details": "Homo sapiens, ASPC1, 72 h incubation", "method_in_brief": "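Human pancreatic cancer AsPC-1 cells seeded at 8000 cells/well, incubated overnight, then exposed to compound for 72 h at 37 °C, 5% CO2. Viability read by MTT (0.5 mg/ml, 3 h), formazan dissolved in DMSO, OD at 490 nm. Inhibition ratio = (PC−n)/(PC−NC)×100%; IC50 = concentration giving 50% inhibition, curve-fitted.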"}, "Fadu cells": {"system": "Fadu cells", "test": "Fadu Cell Growth Inhibition Test (MTT Assay)", "type": "cell-based", "details": "Homo sapiens, 72 h incubation", "method_in_brief": "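Fadu head and neck cancer cells in EMEM + 10% FBS, 6000 cells/well, dosed next day and incubated 72 h at 37 °C, 5% CO2. MTT 0.5 mg/ml for 3 h, DMSO solubilization, OD at 490 nm; inhibition ratio from positive and negative controls, IC50 from fitted curve.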"}, "Sk-Br-3 cells": {"system": "Sk-Br-3 cells", "test": "Sk-Br-3 Cell Growth Inhibition Test (SRB Assay)", "type": "cell-based", "details": "Homo sapiens, 91 h incubation", "method_in_brief": "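Sk-Br-3 cells seeded at 10000/well in DMEM with 10% FBS were incubated overnight, then exposed to compound for 91 h at 37° C, 5% CO2. TCA-fixed cells were SRB-stained and OD read at 570 nm. GI50, TGI and LC50 were derived from growth relative to time-zero, untreated and blank wells.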"}}, "data": [{"smiles": "CN(C)C/C=C/C(=O)Nc1cc2c(Nc3ccc(OCc4ccccc4C#N)c(Cl)c3)c(C#N)cnc2cc1OC1CCOC1", "note": "(stereo not shown) [Example 13, (E)-N-(4-(4-(2-CYANOBENZYLOXY)-3-CHLOROPHENYLAMINO)-3-CYANO-7-(TETRAHYDROFURAN-3-YL-OXY)QUINOLIN-6-YL)-4-(DIMETHYLAMINO)-BUT-2-ENAMIDE]", "values": [{"measurement": "inhibition at 1 µM", "setting": "A431 cells", "value": 89, "unit": "%"}, {"measurement": "IC50", "setting": "A431 cells", "value": 158, "unit": "nM"}, {"measurement": "IC50", "setting": "AsPC-1 cells", "value": 922, "unit": "nM"}, {"measurement": "IC50", "setting": "Fadu cells", "value": 300, "unit": "nM"}]}, {"smiles": "CN(C)C/C=C/C(=O)Nc1cc2c(Nc3ccc(OCc4cccc(C#N)c4)c(Cl)c3)c(C#N)cnc2cc1OC1CCOC1", "note": "(stereo not shown) [Example 15, (E)-N-(4-(4-(3-CYANOBENZYLOXY)-3-CHLOROPHENYLAMINO)-3-CYANO-7-(TETRAHYDROFURAN-3-YL-OXY)QUINOLIN-6-YL)-4-(DIMETHYLAMINO)-BUT-2-ENAMIDE]", "values": [{"measurement": "inhibition at 1 µM", "setting": "A431 cells", "value": 91, "unit": "%"}, {"measurement": "IC50", "setting": "A431 cells", "value": 370, "unit": "nM"}, {"measurement": "IC50", "setting": "AsPC-1 cells", "value": 1100, "unit": "nM"}, {"measurement": "IC50", "setting": "Fadu cells", "value": 260, "unit": "nM"}]}, {"smiles": "CN(C)C/C=C/C(=O)Nc1cc2c(Nc3ccc(OCc4cccc(Cl)c4)c(Cl)c3)c(C#N)cnc2cc1OC1CCOC1", "note": "(stereo not shown) [Example 11, (E)-N-(4-(4-(3-CHLOROBENZYLOXY)-3-CHLOROPHENYLAMINO)-3-CYANO-7-(TETRAHYDROFURAN-3-YL-OXY)QUINOLIN-6-YL)-4-(DIMETHYLAMINO)-BUT-2-ENAMIDE]", "values": [{"measurement": "IC50", "setting": "A431 cells", "value": 184, "unit": "nM"}, {"measurement": "IC50", "setting": "AsPC-1 cells", "value": 1200, "unit": "nM"}, {"measurement": "IC50", "setting": "Fadu cells", "value": 187, "unit": "nM"}]}, {"smiles": "CN(C)C/C=C/C(=O)Nc1cc2c(Nc3ccc(F)c(Cl)c3)c(C#N)cnc2cc1O[C@H]1CCOC1", "note": "[Example 142, (S,E)-N-(4-(3-CHLORO-4-FLUOROPHENYLAMINO)-3-CYANO-7-(TETRAHYDROFURAN-3-YL-OXY)QUINOLIN-6-YL)-4-(DIMETHYLAMINO)-BUT-2-ENAMIDE]", "values": [{"measurement": "GI50", "setting": "Sk-Br-3 cells", "value": 117, "unit": "nM"}, {"measurement": "inhibition at 1 µM", "setting": "A431 cells", "value": 75, "unit": "%"}, {"measurement": "IC50", "setting": "A431 cells", "value": 45, "unit": "nM"}, {"measurement": "IC50", "setting": "AsPC-1 cells", "value": 1500, "unit": "nM"}, {"measurement": "IC50", "setting": "Fadu cells", "value": 115, "unit": "nM"}]}, {"smiles": "CN(C)C/C=C/C(=O)Nc1cc2c(Nc3ccc(OCc4ccccc4)c(Cl)c3)c(C#N)cnc2cc1OC1CCOC1", "note": "(stereo not shown) [Example 12, (E)-N-(4-(4-(BENZYLOXY)-3-CHLOROPHENYLAMINO)-3-CYANO-7-(TETRAHYDROFURAN-3-YL-OXY)QUINOLIN-6-YL)-4-(DIMETHYLAMINO)-BUT-2-ENAMIDE]", "values": [{"measurement": "IC50", "setting": "A431 cells", "value": 147, "unit": "nM"}, {"measurement": "IC50", "setting": "AsPC-1 cells", "value": 1200, "unit": "nM"}, {"measurement": "IC50", "setting": "Fadu cells", "value": 202, "unit": "nM"}]}, {"smiles": "N#Cc1cnc2cc(O[C@H]3CCOC3)c(NC(=O)/C=C/CN3CCCCC3)cc2c1Nc1ccc(OCc2ccccn2)c(Cl)c1", "note": "[Example 151, (S,E)-N-(4-(3-CHLORO-4-(PYRIDIN-2-YL-METHOXY)PHENYLAMINO)-3-CYANO-7-(TETRAHYDROFURAN-3-YL-OXY)QUINOLIN-6-YL)-4-(PIPERIDIN-1-YL)-BUT-2-ENAMIDE]", "values": [{"measurement": "GI50", "setting": "Sk-Br-3 cells", "value": 17, "unit": "nM"}, {"measurement": "IC50", "setting": "A431 cells", "value": 61, "unit": "nM"}, {"measurement": "IC50", "setting": "AsPC-1 cells", "value": 810, "unit": "nM"}, {"measurement": "IC50", "setting": "Fadu cells", "value": 244, "unit": "nM"}]}, {"smiles": "CN(C)C/C=C/C(=O)Nc1cc2c(Nc3ccc(OCc4ccccc4F)c(Cl)c3)c(C#N)cnc2cc1OC1CCOC1", "note": "(stereo not shown) [Example 8, (E)-N-(4-(4-(2-FLUOROBENZYLOXY)-3-CHLOROPHENYLAMINO)-3-CYANO-7-(TETRAHYDROFURAN-3-YL-OXY)QUINOLIN-6-YL)-4-(DIMETHYLAMINO)-BUT-2-ENAMIDE]", "values": [{"measurement": "inhibition at 1 µM", "setting": "A431 cells", "value": 91, "unit": "%"}, {"measurement": "IC50", "setting": "A431 cells", "value": 145, "unit": "nM"}, {"measurement": "IC50", "setting": "AsPC-1 cells", "value": 878, "unit": "nM"}, {"measurement": "IC50", "setting": "Fadu cells", "value": 188, "unit": "nM"}]}, {"smiles": "CN(C)C/C=C/C(=O)Nc1cc2c(Nc3ccc(OCc4ccccn4)c(Cl)c3)c(C#N)cnc2cc1O[C@@H]1CCOC1", "note": "[Example 139, (R,E)-N-(4-(3-CHLORO-4-(PYRIDIN-2-YL-METHOXY)PHENYLAMINO)-3-CYANO-7-(TETRAHYDROFURAN-3-YL-OXY)QUINOLIN-6-YL)-4-(DIMETHYLAMINO)-BUT-2-ENAMIDE]", "values": [{"measurement": "GI50", "setting": "Sk-Br-3 cells", "value": 5.2, "unit": "nM"}, {"measurement": "inhibition at 1 µM", "setting": "A431 cells", "value": 90, "unit": "%"}, {"measurement": "IC50", "setting": "A431 cells", "value": 93, "unit": "nM"}, {"measurement": "IC50", "setting": "AsPC-1 cells", "value": 422, "unit": "nM"}, {"measurement": "IC50", "setting": "Fadu cells", "value": 201, "unit": "nM"}]}, {"smiles": "CN(C)C/C=C/C(=O)Nc1cc2c(Nc3ccc(OCc4ccccn4)c(Cl)c3)c(C#N)cnc2cc1O[C@H]1CCOC1", "note": "[Example 138, (S,E)-N-(4-(3-CHLORO-4-(PYRIDIN-2-YL-METHOXY)PHENYLAMINO)-3-CYANO-7-(TETRAHYDROFURAN-3-YL-OXY)QUINOLIN-6-YL)-4-(DIMETHYLAMINO)-BUT-2-ENAMIDE]", "values": [{"measurement": "GI50", "setting": "Sk-Br-3 cells", "value": 3.8, "unit": "nM"}, {"measurement": "inhibition at 1 µM", "setting": "A431 cells", "value": 89, "unit": "%"}, {"measurement": "IC50", "setting": "A431 cells", "value": 62, "unit": "nM"}, {"measurement": "IC50", "setting": "AsPC-1 cells", "value": 1000, "unit": "nM"}, {"measurement": "IC50", "setting": "Fadu cells", "value": 101, "unit": "nM"}]}, {"smiles": "CN(C)C/C=C/C(=O)Nc1cc2c(Nc3ccc(OCc4cccc(F)c4)c(Cl)c3)c(C#N)cnc2cc1OC1CCOC1", "note": "(stereo not shown) [Example 9, (E)-N-(4-(4-(3-FLUOROBENZYLOXY)-3-CHLOROPHENYLAMINO)-3-CYANO-7-(TETRAHYDROFURAN-3-YL-OXY)QUINOLIN-6-YL)-4-(DIMETHYLAMINO)-BUT-2-ENAMIDE]", "values": [{"measurement": "GI50", "setting": "Sk-Br-3 cells", "value": 15, "unit": "nM"}, {"measurement": "IC50", "setting": "A431 cells", "value": 135, "unit": "nM"}, {"measurement": "Growth Inhibition Ratio (%)", "setting": "A431 cells", "value": 90, "unit": "%"}, {"measurement": "IC50", "setting": "AsPC-1 cells", "value": 458, "unit": "nM"}, {"measurement": "IC50", "setting": "Fadu cells", "value": 219, "unit": "nM"}]}, {"smiles": "CCN(CC)C/C=C/C(=O)Nc1cc2c(Nc3ccc(OCc4ccccn4)c(Cl)c3)c(C#N)cnc2cc1O[C@H]1CCOC1", "note": "[Example 150, (S,E)-N-(4-(3-CHLORO-4-(PYRIDIN-2-YL-METHOXY)PHENYLAMINO)-3-CYANO-7-(TETRAHYDROFURAN-3-YL-OXY)QUINOLIN-6-YL)-4-(DIETHYLAMINO)-BUT-2-ENAMIDE]", "values": [{"measurement": "GI50", "setting": "Sk-Br-3 cells", "value": 11, "unit": "nM"}, {"measurement": "inhibition at 1 µM", "setting": "A431 cells", "value": 84, "unit": "%"}, {"measurement": "IC50", "setting": "A431 cells", "value": 27, "unit": "nM"}, {"measurement": "IC50", "setting": "AsPC-1 cells", "value": 895, "unit": "nM"}, {"measurement": "IC50", "setting": "Fadu cells", "value": 207, "unit": "nM"}]}, {"smiles": "CN(C)C/C=C/C(=O)Nc1cc2c(Nc3ccc(F)c(Cl)c3)c(C#N)cnc2cc1OC1CCOC1", "note": "(stereo not shown) [Example 4, (E)-N-(4-(3-CHLORO-4-FLUOROPHENYLAMINO)-3-CYANO-7-(TETRAHYDROFURAN-3-YL-OXY)QUINOLIN-6-YL)-4-(DIMETHYLAMINO)-BUT-2-ENAMIDE]", "values": [{"measurement": "GI50", "setting": "Sk-Br-3 cells", "value": 148, "unit": "nM"}, {"measurement": "IC50", "setting": "A431 cells", "value": 68, "unit": "nM"}, {"measurement": "Growth Inhibition Ratio (%)", "setting": "A431 cells", "value": 80, "unit": "%"}, {"measurement": "IC50", "setting": "AsPC-1 cells", "value": 1000, "unit": "nM"}, {"measurement": "IC50", "setting": "Fadu cells", "value": 331, "unit": "nM"}]}]}
